Tests used:
[1] = test system: human Burkitt lymphoma Raji cell; experiment: Cytotoxic action on cancer cells (WST-8, 96 hr); format: cell-based; conditions: 96 hr culture
In short: (§1)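 Growth medium was 10% FBS/RPMI1640 throughout, with compound added after an overnight culture at 37° C. Survival was scored by WST-8 relative to untreated cells.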

[2] = test system: human acute myeloid leukemia MV-4-11 cell; experiment: Cytotoxic action on cancer cells (WST-8, 96 hr); format: cell-based; conditions: MV4-11, MV-4-11 cells, 96 hr culture
In short: as §1

[3] = test system: human bladder cancer 5637 cell; experiment: Cytotoxic action on cancer cells (WST-8, 96 hr); format: cell-based; conditions: 5637 cells, 96 hr culture
In short: as §1

[4] = test system: human breast cancer ZR-75-1 cell; experiment: Cytotoxic action on cancer cells (WST-8, 96 hr); format: cell-based; conditions: ZR-75-1 cells, 96 hr culture
In short: as §1

[5] = test system: human castration-resistant prostate cancer PC-3 cell; experiment: Cytotoxic action on cancer cells (WST-8, 96 hr); format: cell-based; conditions: PC-3 cells (printed P0-3 in table), 96 hr culture
In short: as §1

[6] = test system: human gastric cancer SNU-16 cell; experiment: Cytotoxic action on cancer cells (WST-8, 96 hr); format: cell-based; conditions: SNU-16 cells, 96 hr culture
In short: as §1

[7] = test system: human glioma U-87 MG cell; experiment: Cytotoxic action on cancer cells (WST-8, 96 hr); format: cell-based; conditions: U-87 MG cells, 96 hr culture
In short: as §1

[8] = test system: human liver cancer Hep G2 cell; experiment: Cytotoxic action on cancer cells (WST-8, 96 hr); format: cell-based; conditions: HepG2, 96 hr culture
In short: as §1

[9] = test system: human multiple myeloma MM.1S cell; experiment: Cytotoxic action on cancer cells (WST-8, 96 hr); format: cell-based; conditions: MM1.S, MM.1S cells, 96 hr culture
In short: as §1

[10] = test system: human non-small cell lung cancer NCI-H1975 cell; experiment: Cytotoxic action on cancer cells (WST-8, 96 hr); format: cell-based; conditions: 96 hr culture
In short: as §1

[11] = test system: human ovarian cancer A2780 cell; experiment: Cytotoxic action on cancer cells (WST-8, 96 hr); format: cell-based; conditions: 96 hr culture
In short: as §1

[12] = test system: human prostate cancer LNCaP cells; experiment: Cytotoxic action on cancer cells (WST-8, 96 hr); format: cell-based; conditions: Homo sapiens, LNCaP, 96 h, read-out: LNCaP cytotoxic activity: IC50
In short: as §1

[13] = test system: human triple negative breast cancer MDA-MB-231 cell; experiment: Cytotoxic action on cancer cells (WST-8, 96 hr); format: cell-based; conditions: MDA-MB-231 cells, 96 hr culture
In short: as §1

[14] = target: BRD4 protein (Homo sapiens (Human), UniProt O60885); experiment: BRD4 protein degradation inducing action in cancer cells (immunofluorescence, Operetta); format: cell-based; conditions: LNCaP cells, 6 hr treatment, fluorescence intensity
In short: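 DC50 = compound concentration reducing BRD4 immunofluorescence to 50% of untreated cells, interpolated between the two flanking concentrations. Treatment: LNCaP cells, 6 hr, 10% FBS/RPMI1640, 37° C. Cells were then fixed, permeabilized, stained with anti-BRD4 and Alexa Fluor 488 or 546 secondaries, and imaged.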

[15] = test system: human acute myeloid leukemia MV-4-11 cell transplanted mouse; experiment: Antitumor effect in human acute myeloid leukemia MV-4-11 cell transplanted mouse; format: in vivo; conditions: MV4-11, iv, 360 h, read-out: tumor growth inhibitory rate
Procedure: The in vivo antitumor effect of the compound of the present invention was studied using human acute myeloid leukemia MV-4-11 cell transplanted mouse. MV-4-11 cells were subcutaneously transplanted into the inguinal region of male, 6-week-old BALB/c nude mouse (5×10^6 cells/mouse). The compound of the present invention was administered into the tail vein on days 1, 5, 9, 13 from the time point when the assumed tumor volume determined from 1/2ab^2 (a is major axis and b is minor axis of tumor) reached about 100 mm^3 (day 1). The control group was administered with a solvent, 10% hydroxypropyl-β-cyclodextrin solution. On day 15, the tumor was isolated, the weight was measured, and the tumor growth inhibitory rate IR (%) was calculated by the following formula. tumor growth inhibitory rate IR (%)=(1−tumor weight of administration group/tumor weight of nonadministration control group)×100

| SMILES | IC50 [1] [nM] | IC50 [2] [nM] | IC50 [3] [nM] | IC50 [4] [nM] | IC50 [5] [nM] | IC50 [6] [nM] | IC50 [7] [nM] | IC50 [8] [nM] | IC50 [9] [nM] | IC50 [10] [nM] | IC50 [11] [nM] | IC50 [12] [nM] | IC50 [13] [nM] | DC50 [14] [nM] | inhibition in vivo at 1 mg/kg [15] [%] | inhibition in vivo at 5 mg/kg [15] [%] | inhibition in vivo at 3 mg/kg [15] [%] |
| --- | --- | --- | --- | --- | --- | --- | --- | --- | --- | --- | --- | --- | --- | --- | --- | --- | --- |
| COC(=O)C[C@@H]1N=C(c2ccc(-c3ccc(OCC(=O)N[C@H](C(=O)N4C[C@H](O)C[C@H]4C(=O)N[C@@H](C)c4ccc(-c5scnc5C)cc4)C(C)(C)C)c(C#N)c3)cc2)c2c(sc(C)c2C)-n2c(C)nnc21 [Example 9, methyl [(6S)-4-{3′-cyano-4′-[2-({(2S)-1-[(2S,4R)-4-hydroxy-2-({(1S)-1-[4-(4-methyl-1,3-thiazol-5-yl)phenyl]ethyl}carbamoyl)pyrrolidin-1-yl]-3,3-dimethyl-1-oxobutan-2-yl}amino)-2-oxoethoxy][1,1′-biphenyl]-4-yl}-2,3,9-trimethyl-6H-thieno[3,2-f][1,2,4]triazolo[4,3-a][1,4]diazepin-6-yl]acetate] | 1.9 | 0.015 | 0.45 | 0.96 | 1 | 3 | 9.1 | 33 | 0.14 | 3.7 | 0.16 | 0.16 | 5.7 | 0.15 | 98.5 | 98.4 | – |
| COC(=O)C[C@@H]1N=C(c2ccc(N3CC[C@@H](Oc4ccc5oc(C(=O)N[C@H](C(=O)N6C[C@H](O)C[C@H]6C(=O)N[C@@H](C)c6ccc(-c7scnc7C)cc6)C(C)(C)C)cc5c4)C3)cc2)c2c(sc(C)c2C)-n2c(C)nnc21 [Example 142, methyl [(6S)-4-{4-[(3R)-3-{[2-({(2S)-1-[(2S,4R)-4-hydroxy-2-({(1S)-1-[4-(4-methyl-1,3-thiazol-5-yl)phenyl]ethyl}carbamoyl)pyrrolidin-1-yl]-3,3-dimethyl-1-oxobutan-2-yl}carbamoyl)-1-benzofuran-5-yl]oxy}pyrrolidin-1-yl]phenyl}-2,3,9-trimethyl-6H-thieno[3,2-f][1,2,4]triazolo[4,3-a][1,4]diazepin-6-yl]acetate] | 0.71 | 0.041 | 0.34 | 0.49 | 0.34 | 0.55 | 4 | 7.4 | 0.23 | 1.8 | 0.27 | 0.3 | 0.98 | 0.72 | – | – | 97.4 |
| COC(=O)C[C@@H]1N=C(c2ccc(-c3ccc(C(=O)N[C@H](C(=O)N4C[C@H](O)C[C@H]4C(=O)N[C@@H](C)c4ccc(-c5scnc5C)cc4)C(C)(C)C)c(Cl)c3)cc2)c2c(sc(C)c2C)-n2c(C)nnc21 [Example 157, methyl {(6S)-4-[3′-chloro-4′-({(2S)-1-[(2S,4R)-4-hydroxy-2-({(1S)-1-[4-(4-methyl-1,3-thiazol-5-yl)phenyl]ethyl}carbamoyl)pyrrolidin-1-yl]-3,3-dimethyl-1-oxobutan-2-yl}carbamoyl)[1,1′-biphenyl]-4-yl]-2,3,9-trimethyl-6H-thieno[3,2-f][1,2,4]triazolo[4,3-a][1,4]diazepin-6-yl}acetate] | 0.59 | 0.029 | 0.33 | 2 | 0.41 | 1.2 | 18 | 12 | 0.081 | 2.2 | 0.15 | 0.4 | 1.8 | 0.38 | 95.5 | – | 98.2 |

— patent publication US11542273B2, “Amide compound having bet proteolysis-inducing action and medicinal application thereof” (MITSUBISHI TANABE PHARMA CORPORATION, priority 2018, dated 2023)
